Measurements as given in patent US7923465B2, “Cannabinoid receptor ligands, pharmaceutical compositions containing them, and process for their preparation” (priority 2005, dated 2011).
Read-outs that look alike come from different tables or passages of the source.

Experiments:
[1] = tested on: CB2 receptor; assay: Rat CB2 receptor binding using spleen membrane, [3H]CP55,940 displacement (Protocol III)
Description: III. In Vitro Protocol for Rat CB2 Receptor Binding Using Spleen Membrane
In this assay, [^3H]CP55,940 was used to bind the CB2 receptor present in a rat spleen membrane preparation which can be displaced by unlabeled ligands having affinity to the CB2 receptor.
The assay was performed according to the modified method of Rinaldi-Carmona et al., 1998 (JPET 284: 644-650). The total reaction mixture ([…]) contained Tris-BSA buffer (50 mM Tris, pH 7.4 with 1.5% BSA) or unlabeled SR144528 (N-[(1S)-endo-1,3,3-trimethyl bicyclo[2.2.1]heptan-2-yl]-5-(4-chloro-3-methylphenyl)-1-(4-methyl-benzyl)-pyrazole-3-carboxamide]) ([…]) or test samples (300 nM), [^3H]CP55,940 (1 nM) and […] of rat […] membrane. The non-specific binding was defined by […] of SR144528. The assay mixture was incubated at 37° C. for 1 hour. The reaction was then stopped by rapid filtration under vacuum using a Whatman GF/B-96 micro filter plate. A scintillation cocktail was added and radioactive counts were measured using a Topcount beta scintillation counter.
The standard and test sample dilutions were made in an assay buffer containing either ethanol or DMSO at a final concentration of 1%.
The percent (%) displacement by a test ligand was calculated by comparing the specific bound values.

[2] = target: T1, hCB1 (Homo sapiens, UniProt P21554); assay: Agonism of CB1 receptors expressed in CHO cells, forskolin cAMP assay (Protocol IX.2); assay type: cell-based; set-up: expressed in transfected cells; host or cells: CHO (h-CB1/CHO, G418-selected); settings: for activation at 10 µM: CHO
T1 sequence (P21554 whole entry): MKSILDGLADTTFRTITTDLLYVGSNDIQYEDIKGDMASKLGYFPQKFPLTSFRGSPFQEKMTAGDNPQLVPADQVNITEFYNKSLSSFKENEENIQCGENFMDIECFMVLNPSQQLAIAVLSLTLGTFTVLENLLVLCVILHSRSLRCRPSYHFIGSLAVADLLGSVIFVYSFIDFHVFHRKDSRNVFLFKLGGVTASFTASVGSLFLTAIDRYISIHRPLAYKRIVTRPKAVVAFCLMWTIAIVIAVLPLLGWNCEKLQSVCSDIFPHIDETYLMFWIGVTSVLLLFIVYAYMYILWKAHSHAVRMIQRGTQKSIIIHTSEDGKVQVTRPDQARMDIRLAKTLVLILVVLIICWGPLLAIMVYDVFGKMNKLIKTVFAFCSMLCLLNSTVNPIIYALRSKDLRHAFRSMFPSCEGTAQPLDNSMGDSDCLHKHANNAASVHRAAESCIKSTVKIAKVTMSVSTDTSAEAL
Description: (§1) IX. Assay for Determining Agonist and Antagonist Activity to CB1 and CB2 Receptors
2. Agonism of CB1/CB2 Receptors Expressed in CHO Cells
h-CB1/CHO or h-CB2/CHO cells were grown in HAM's F12 DMEM medium (Sigma) with 10% FBS (Hyclone), 1% penicillin-streptomycin solution and 400 μg/ml of G418 (Sigma). 5000 cells were seeded per well in a 96 well plate and incubated for 24 hours at 37° C. in 5% CO2. On the day of assay, cells were washed with warm Krebs Buffer containing 0.1% fatty acid free (FAF) BSA (Sigma) and re-suspended in the same buffer containing 1 mM IBMX. […] At the end of incubation, cells were lysed using lysis reagent from the cAMP estimation kit and cAMP was quantitated by chemiluminescence method described in the manufacturer's instructions (DiscoveRX). EC50 values were calculated from dose response curves by nonlinear regression analysis using PRISM software.

[3] = target: T2, CB1 (Rattus norvegicus, UniProt P20272); assay: GTPγS binding assay, CB1 functional assay in rat cerebellar membrane (Protocol VIII); assay type: biochemical; set-up: 10 μg rat cerebellum membrane; from tissue; host or cells: rat cerebellum membrane, prepared in-house; settings: for activation at 0.3 µM: 1 h, GTPγS binding over basal, rat cerebellar membrane, tested at 300 nM, read-out: Per Se % Stimulation; for inhibition at 0.3 µM: GTPγS binding, tested at 300 nM in presence of 1 μM WIN 55,212-2, read-out: % Inhibition of WIN-55212-2 induced stimulation
T2 sequence (P20272 whole entry): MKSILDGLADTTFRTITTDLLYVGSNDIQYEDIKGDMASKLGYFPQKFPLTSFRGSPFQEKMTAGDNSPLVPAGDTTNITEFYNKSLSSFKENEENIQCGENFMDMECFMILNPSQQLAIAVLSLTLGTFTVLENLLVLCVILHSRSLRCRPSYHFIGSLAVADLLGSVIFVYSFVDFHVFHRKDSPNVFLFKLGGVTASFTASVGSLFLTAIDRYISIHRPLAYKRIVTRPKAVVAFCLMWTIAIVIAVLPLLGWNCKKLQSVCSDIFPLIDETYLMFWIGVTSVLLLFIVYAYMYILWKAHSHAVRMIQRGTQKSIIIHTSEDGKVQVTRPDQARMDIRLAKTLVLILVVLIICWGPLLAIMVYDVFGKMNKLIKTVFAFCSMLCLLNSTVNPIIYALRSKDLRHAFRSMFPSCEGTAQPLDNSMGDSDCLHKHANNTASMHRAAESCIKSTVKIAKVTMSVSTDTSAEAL
Method in brief: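 Rat cerebellar membranes (10 μg) incubated 1 h at 30 °C with 0.2 nM [35S]GTPγS, 50 μM GDP, and compound at 1 μM or 300 nM, alone or with 1 μM WIN 55,212-2, in Tris/MgCl2/EGTA/NaCl pH 7.4. Filter-bound radioactivity counted; percent stimulation calculated against basal specific binding (nonspecific defined by 10 μM GTPγS).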

[4] = target: T1, hCB1; assay: Antagonism of CB1 receptors expressed in CHO cells, cAMP assay against CP 55,940 (Protocol IX.1); assay type: cell-based; set-up: expressed in transfected cells; host or cells: CHO (h-CB1/CHO, G418-selected); settings: for inhibition at 10 µM: read-out: hCB1 Antagonism
[5] = target: T3, hCB2 (Homo sapiens, UniProt P34972); assay: Antagonism of CB2 receptors expressed in CHO cells, cAMP assay against CP 55,940 (Protocol IX.1); assay type: cell-based; set-up: expressed in transfected cells; host or cells: CHO (h-CB2/CHO, G418-selected); settings: h-CB2/CHO cells, vs 10 nM CP 55,940; for inhibition at 10 µM: CHO
T3 sequence (P34972 whole entry): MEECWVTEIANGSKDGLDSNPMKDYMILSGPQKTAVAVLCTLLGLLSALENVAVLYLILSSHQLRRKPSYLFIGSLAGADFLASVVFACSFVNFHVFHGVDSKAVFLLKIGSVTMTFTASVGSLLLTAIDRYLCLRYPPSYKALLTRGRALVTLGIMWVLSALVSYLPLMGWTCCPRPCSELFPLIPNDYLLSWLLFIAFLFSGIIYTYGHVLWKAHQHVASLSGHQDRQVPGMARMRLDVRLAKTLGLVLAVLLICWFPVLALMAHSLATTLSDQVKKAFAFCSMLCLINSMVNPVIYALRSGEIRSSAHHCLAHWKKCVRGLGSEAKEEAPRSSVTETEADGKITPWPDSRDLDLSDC
Description: as §1
1. Antagonism of CB1/CB2 Receptors Expressed in CHO Cells.
h-CB1/CHO or h-CB2/CHO cells were grown in HAM's F12 DMEM medium (Sigma) with 10% FBS (Hyclone), 1% penicillin-streptomycin solution and 400 μg/ml of G418 (Sigma). 5000 cells were seeded per well in a 96 well plate and incubated for 24 hours at 37° C. in 5% CO2. On the day of assay, cells were washed with warm Krebs buffer containing 0.1% fatty acid free (FAF) BSA (Sigma) and re-suspended in the same buffer containing 1 mM IBMX. Test antagonist or reference compound (AM 251 (1-(2,4-dichlorophenyl)-5-(4-iodophenyl)-4-methyl-N-(1-piperidyl)pyrazole-3-carboxamide) for CB1 and SR144528 for CB2) diluted in FAFBSA+IBMX+Krebs buffer was added to the cells and incubated for 10 minutes at room temperature. CP 55,940 (30 nM final concentration for CB1 testing and 10 nM of the same for CB2 testing) was added to cells followed by forskolin (10 μM final concentration) and incubated for 30 minutes at room temperature. At the end of incubation, cells were lysed using lysis reagent from the cAMP estimation kit and cAMP was quantitated by the chemiluminescence method described in the manufacturer's instructions (DiscoveRX). EC50 values were calculated from dose response curves by nonlinear regression analysis using PRISM software.

[6] = target: T3, hCB2; assay: Agonism of CB2 receptors expressed in CHO cells, forskolin cAMP assay (Protocol IX.2); assay type: cell-based; set-up: expressed in transfected cells; host or cells: CHO (h-CB2/CHO, G418-selected); settings: cAMP
Method in brief: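 CHO cells expressing h-CB2 were treated with compound in Krebs buffer with 0.1% FAF BSA and 1 mM IBMX, plus 10 uM forskolin, for 30 minutes at room temperature. cAMP in lysates was measured by chemiluminescence. EC50 was derived by nonlinear regression of dose–response curves, with CP 55,940 at 10 μM as reference for CB2.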

[7] = target: T2, CB1; assay: Rat CB1 receptor binding using brain membrane, [3H]SR141716A displacement (Protocol I); set-up: CB1 receptor present in a rat brain membrane preparation; from tissue; host or cells: rat brain membrane; inhibition: dose or concentration left out as unconfirmed; settings: 1 h
[8] = target: T3, hCB2; assay: In vitro binding assay using hCB2-CHO membranes, [3H]-CP-55,940 displacement (Protocol IV); set-up: expressed in transfected cells; host or cells: CHO (hCB2-CHO, generated in-house); settings: for inhibition at 0.3 µM: 1 h, read-out: % Displacement Protocol IV
Method in brief: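 Compounds were tested at a single 300 nM final concentration for displacing 0.75 nM [3H]-CP-55,940 from hCB2-CHO membranes (1 h, 30 °C, 50 mM Tris pH 7.4, 5 mM MgCl2, 1 mM EDTA, 0.1% BSA). Filter-bound radioactivity was counted, with 0.5 μM unlabelled CP-55,940 for nonspecific binding; results are % displacement.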

[9] = tested on: neuropathic hyperalgesia; assay: Neuropathic hyperalgesia model, partial sciatic nerve ligation (Seltzer's model, Protocol V); assay type: in vivo; settings: rat, 1 mg/kg I.P., paw pressure, 0.5 and 1 hour postdose
Description: V. Neuropathic Hyperalgesia Model—Partial Sciatic Nerve Ligation (Seltzer's Model)
This protocol was performed with the compound of Example 294 at 0.01, 0.1, 0.3, and 1 mg/kg (I.P.), and gabapentin at 100 mg/kg (I.P.) to evaluate the ability of the compound of Example 294 in reducing neuropathic hyperalgesia. The Seltzer method is also generally described in Seltzer et al., Pain 1990, 43:205-18. • 1. Rats were anesthetised using ketamine/xylazine (40/5 mg/kg/ml, i.p.). After induction of anaesthesia, the left thigh was shaved and cleaned. • 2. The left sciatic nerve was exposed at mid thigh level through a small incision. • 3. The nerve was cleared from adhering muscle tissue. • 4. One half of the nerve thickness was tightly ligated just after the bifurcation of common sciatic nerve using 7.0 silk sutures. • 5. The wound was closed with muscle and skin sutures and povidone was applied. • 6. […] Paw withdrawal thresholds were recorded for both the ipsilateral and the contralateral hind paws before (predose) and 0.5 and 1 hour after drug or vehicle administration (postdose). • 9. […]
The threshold withdrawal latency (naïve, predose & postdose) values are represented as mean±SEM. […] The percent reversal of neuropathic mechanical hyperalgesia was calculated from withdrawal threshold latency values according to the following formula: […]

[10] = target: T1, hCB1; assay: In vitro binding assay using hCB1-CHO membranes, [3H]-CP-55,940 displacement (Protocol II); set-up: expressed in transfected cells; host or cells: CHO (hCB1-CHO, generated in-house)
Method in brief: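 Incubated 1 h at 37° C, stopped by rapid vacuum filtration on PEI-precoated GF/B filters, bound radioactivity counted by liquid scintillation.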

[11] = at 10 uM, h-CB1/CHO cells, cAMP, vs 30 nM CP 55,940
[12] = at 10 uM, h-CB1/CHO cells, cAMP
[13] = hCB2-CHO membranes, [3H]-CP-55,940 displacement
[14] = h-CB2/CHO cells, read-out: hCB2 Agonism IC50

Row | SMILES | % Displacement Protocol III [1] | IC50 [2] | activation at 0.3 µM [3] | inhibition at 0.3 µM [3] | melting point | inhibition at 10 µM [4, 11] | activation at 10 µM [2, 12] | inhibition at 10 µM [5] | IC50 [6, 14] | further results
1 | C[C@H](NC(=O)c1nn(-c2ccc(Cl)cc2)c2c1C1CC3CC(C1)CC2C3)c1ccccc1 [Example 117] | 59.8% | 18.9 nM | 4.4% | 55.7% | 85 to 86 °C |  |  |  |  | 
2 | CC(C)(NC(=O)c1nn(-c2ccc(Cl)cc2)c2c1C1CC3CC(C1)CC2C3)c1ccccc1 [Example 119] | 85.2% | 38.3 nM | 46% | 38.9% | 181 °C |  |  |  |  | inhibition at 10 µM ([4]; CHO): 18.4%
3 | O=C(NCc1ccccc1)c1n[nH]c2c1C1CC3CC(CC2C3)C1 [Example 186, N(7)-Benzyl-5,6-diazatetracyclo[7.3.1.1^3,11.0^4,8]tetradeca-4(8)-6-diene-7-carboxamide] |  |  |  |  |  | 0% | 29.4% | 21% |  | IC50 ([6]; hCB2 Agonism IC50, h-CB2/CHO cells): 8.51 nM; inhibition ([7]; rat brain membrane, [3H]SR141716A displacement, read-out: % Displacement Protocol I): 17.2%; inhibition at 0.3 µM [8, 13]: 59.1%
4 | CC(C)(NC(=O)c1nn(-c2ccc(F)cc2F)c2c1C1CCC2C1)c1ccccc1 (stereo not shown) [Example 294, N(3)-(1-Methyl-1-phenylethyl)-1-(2,4-difluorophenyl)-4,5,6,7-tetrahydro-1H-4,7-methano-indazole-3-carboxamide] |  |  | 103% | 9.8% | 105 °C |  |  |  |  | inhibition ([7]; read-out: % Displacement Protocol I, rat brain membrane, [3H]SR141716A displacement): 111%; reversal of neuropathic hyperalgesia [9]: significantly reversed neuropathic hyperalgesia
5 | O=C(NCC1CCOCC1)c1nn(-c2ccc(F)cc2F)c2c1C1CCC2C1 (stereo not shown) [Example 316, N(3)-(Tetrahydro-2H-4-pyranmethyl)-1-(2,4-difluorophenyl)-4,5,6,7-tetrahydro-1H-4,7-methano-indazole-3-carboxamide] |  |  |  |  |  |  |  |  | 1.2 to 4.27 nM | % Displacement Protocol II [10]: 13.83%; hCB1 Antagonism [4, 11]: 2% at 10 uM; hCB1 Agonism [2, 12]: 18.53% at; hCB2 Antagonism ([5]; at 10 uM): 37.63% at; % Displacement Protocol IV [8, 13]: 66.65%
6 | CC(C)(C)NC(=O)c1nn(-c2ccc(F)cc2)c2c1C1CCC2C1 (stereo not shown) [Example 323, N(3)-(tert-Butyl)-1-(4-fluorophenyl)-4,5,6,7-tetrahydro-1H-4,7-methano-indazole-3-carboxamide] |  |  |  |  | 131 to 133 °C | 0% | 0% | 18% | 14.1 nM | inhibition at 0.3 µM [8]: 82.5%
